{"source": "patent US9090599B2", "about": "“Heteroarylmethyl amides” (Hoffman-La Roche Inc., priority 2010, dated 2015)", "key": {"human CB1 receptor": {"biological_target": "T1, human CB1 receptor (Homo sapiens, UniProt P21554)", "T1 construct": "expressed in transfected cells; host or cells: human embryonic kidney (HEK) cells, Semliki Forest Virus system, membrane preparations", "T1 sequence (P21554 whole entry)": "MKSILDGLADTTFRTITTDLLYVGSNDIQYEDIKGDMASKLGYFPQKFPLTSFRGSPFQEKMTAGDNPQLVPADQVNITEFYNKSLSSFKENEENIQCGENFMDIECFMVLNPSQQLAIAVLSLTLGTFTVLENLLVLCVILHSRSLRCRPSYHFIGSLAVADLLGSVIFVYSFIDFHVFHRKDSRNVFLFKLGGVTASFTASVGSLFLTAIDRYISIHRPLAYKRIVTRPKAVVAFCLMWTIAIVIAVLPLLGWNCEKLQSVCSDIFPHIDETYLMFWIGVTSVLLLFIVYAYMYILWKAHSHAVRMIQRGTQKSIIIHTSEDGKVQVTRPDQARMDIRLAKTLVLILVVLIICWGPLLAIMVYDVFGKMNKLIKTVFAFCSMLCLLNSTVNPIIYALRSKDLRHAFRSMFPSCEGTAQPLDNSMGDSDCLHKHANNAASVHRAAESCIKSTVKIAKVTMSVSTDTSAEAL", "test": "CB1 receptor affinity, [3H]-CP-55,940 displacement, HEK cell membranes", "type": "binding", "conditions": "10 μM compound, radioligand [3H]-CP-55,940; read-out: CB1 receptor affinity [% inhibition @ 10 μM]", "method_in_brief": "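Membranes from HEK cells transiently expressing human CB1 (Semliki Forest Virus system) incubated with [3H]-CP-55,940 with or without test compound. Bound and free ligand separated by glass-fibre filtration and bound radioactivity counted by scintillation. Compounds tested at 10 μM, values reported as % inhibition of radioligand binding.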"}, "human CB2 receptor": {"biological_target": "T2, human CB2 receptor (Homo sapiens, UniProt P34972)", "T2 construct": "expressed in transfected cells; host or cells: human embryonic kidney (HEK) cells, Semliki Forest Virus system, membrane preparations", "T2 sequence (P34972 whole entry)": "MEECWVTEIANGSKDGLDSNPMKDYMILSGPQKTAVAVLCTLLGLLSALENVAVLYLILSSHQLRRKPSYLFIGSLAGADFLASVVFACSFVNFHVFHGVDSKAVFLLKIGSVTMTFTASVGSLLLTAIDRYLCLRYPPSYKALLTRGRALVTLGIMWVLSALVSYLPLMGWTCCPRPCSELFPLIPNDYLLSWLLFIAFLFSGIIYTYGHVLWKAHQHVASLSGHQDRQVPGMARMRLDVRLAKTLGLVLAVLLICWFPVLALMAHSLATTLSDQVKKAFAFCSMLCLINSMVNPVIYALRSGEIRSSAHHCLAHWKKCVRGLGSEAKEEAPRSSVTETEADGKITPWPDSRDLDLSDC", "test": "CB2 receptor affinity, [3H]-CP-55,940 displacement, HEK cell membranes", "type": "binding", "conditions": "10 μM compound, radioligand [3H]-CP-55,940", "method_in_brief": "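Membranes from HEK cells transiently expressing human CB2 (Semliki Forest Virus) incubated with [3H]-CP-55,940 ± compound at 10 μM. Bound ligand separated by glass-fibre filtration and counted by scintillation; reported as % inhibition at 10 μM.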"}, "ABCA1 protein": {"system": "ABCA1 protein", "test": "Detection of upregulation of ABCA1 protein in THP-1 macrophage cells (ApoA-I binding, high content imaging)", "type": "cell-based", "conditions": "24 hrs with compound, AlexaFluor 647 ApoA-I binding, read-out: ABCA1 protein increasing efficacy EC50", "description": "The ability of compounds of the invention to increase the level of ABCA1 protein is determined in replicate cultures of THP-1 macrophage cells in 96-well microplates. Cells are plated at an initial density of 100,000 cells/well in 100 μl medium and differentiated to adherent macrophages with the addition of PMA (100 nM) for 68 hrs in 10% fetal bovine serum, 3 μl/L of b-mercaptoethanol, RPMI-1640 medium. Then, cells are incubated with RPMI-1640 medium containing 1% FCS, 25 μg/ml acetylated LDL, for 24 hours at 37°. Following incubation with acetylated LDL, cells are washed twice with 50 μl PBS and incubated with 100 μl of RPMI-1640 medium containing the compound of interest solubilized in DMSO for an additional 24 hrs. The final DMSO concentration in presence of cells is maintained at 0.5%. ApoA-I binding assay using High Content Image Analysis is initiated by replacing with fresh medium, RPMI without Phenol Red, 0.2% BSA containing AlexaFluor®647 labeled ApoA-I for 2 h/37° C./5% CO2. Then, cells are fixed with 4% Formaldehyde in PBS (15 min, RT). Following Nuclei are stained with Hoechst solution (3 μM PBS) and Cytoplasm with Cell Mask Blue (2 μg/ml PBS), 15 min, RT. Finally the stained cells are fixed with a second round of formaldehyde treatment. Fixed stained cells are washed and kept in PBS at 4° C. and can be read immediately until one month after preparation.\nThe Alexa Fluor 647-labeled Apolipoprotein A-I (20 nM) was prepared as follows: Human recombinant Apolipoprotein A-I (ApoA-I) was exchanged to a buffer of 0.02 M NaHCO3 at pH 8.2 on an NAP desalting column (GE Healthcare) and brought to a concentration to 40 μM (1.13 mg/ml) by adjustment with the same buffer. The ApoA-I was fluorescently labeled by incubation with Alexa Fluor carboxylic acid succimidyl ester. (Alexa Fluor 647, Invitrogen A-20006) at a 2:1 molar ratio (Alexa to ApoA-I) for 1 h under shaking at RT. The remaining unconjugated label was removed by buffer exchange to 0.02M NaHCO3 at pH 8.2.\nImaging and data collection were performed on an OPERA confocal microplate imaging reader using a 20× water immersion objective and UV360 or 405 laser to identify the cell nuclei and a 635 laser to identify the fluorescent ApoA-I. Eight fields of view are captured per well. Image capture and analysis was performed with the Acapella software. Background fluorescence detected in control wells without ApoA-I was subtracted.\nUsing XLfit3 program (ID Business Solutions Ltd. UK), the model 205 for Dose Response One Site is used to calculate the EC50 values. […] Preferably, the compounds of the present invention have EC50 values in a range of 0.1 μM to 3 μM."}}}
{"smiles": "Cc1ccc(-c2cc(C(=O)NCc3nc(C(F)(F)F)no3)cnc2OCC(F)(F)F)cc1Cl", "note": "[Example 80, 5-(3-chloro-4-methylphenyl)-6-(2,2,2-trifluoroethoxy)-N-((3-(trifluoromethyl)-1,2,4-oxadiazol-5-yl)methyl)nicotinamide]", "values": [{"measurement": "inhibition at 10 µM", "setting": "human CB1 receptor", "value": 15, "unit": "%"}, {"measurement": "inhibition at 10 µM", "setting": "human CB2 receptor", "value": -4, "unit": "%"}, {"measurement": "EC50", "setting": "ABCA1 protein", "value": 3130, "unit": "nM"}]}
{"smiles": "O=C(NCc1nc(C(F)(F)F)no1)c1cnc(OCC(F)(F)F)c(-c2ccc(F)c(Cl)c2)c1", "note": "[Example 81, 5-(3-chloro-4-fluorophenyl)-6-(2,2,2-trifluoroethoxy)-N-((3-(trifluoromethyl)-1,2,4-oxadiazol-5-yl)methyl)nicotinamide]", "values": [{"measurement": "inhibition at 10 µM", "setting": "human CB1 receptor", "value": 4, "unit": "%"}, {"measurement": "inhibition at 10 µM", "setting": "human CB2 receptor", "value": 7, "unit": "%"}, {"measurement": "EC50", "setting": "ABCA1 protein", "value": 890, "unit": "nM"}]}
{"smiles": "O=C(NCc1nc(C(F)(F)F)no1)c1cnc(OCC(F)(F)F)c(-c2ccc(F)c(F)c2)c1", "note": "[Example 89, 5-(3,4-difluorophenyl)-6-(2,2,2-trifluoroethoxy)-N-((3-(trifluoromethyl)-1,2,4-oxadiazol-5-yl)methyl)nicotinamide]", "values": [{"measurement": "inhibition at 10 µM", "setting": "human CB1 receptor", "value": 28, "unit": "%"}, {"measurement": "inhibition at 10 µM", "setting": "human CB2 receptor", "value": 4, "unit": "%"}, {"measurement": "EC50", "setting": "ABCA1 protein", "value": 1960, "unit": "nM"}]}
{"smiles": "O=C(NCc1nc(C(F)(F)F)no1)c1cnc(OC2CCC2)c(-c2ccc(F)c(F)c2)c1", "note": "[Example 91, 6-cyclobutoxy-5-(3,4-difluorophenyl)-N-((3-(trifluoromethyl)-1,2,4-oxadiazol-5-yl)methyl)nicotinamide]", "values": [{"measurement": "inhibition at 10 µM", "setting": "human CB1 receptor", "value": 23, "unit": "%"}, {"measurement": "inhibition at 10 µM", "setting": "human CB2 receptor", "value": 12, "unit": "%"}, {"measurement": "EC50", "setting": "ABCA1 protein", "value": 620, "unit": "nM"}]}
{"smiles": "Cc1cc(-c2cc(C(=O)NCc3nc(C(F)(F)F)no3)cnc2OC2CCC2)ccc1Cl", "note": "[Example 94, 5-(4-chloro-3-methylphenyl)-6-cyclobutoxy-N-((3-(trifluoromethyl)-1,2,4-oxadiazol-5-yl)methyl)nicotinamide]", "values": [{"measurement": "inhibition at 10 µM", "setting": "human CB1 receptor", "value": 19, "unit": "%"}, {"measurement": "inhibition at 10 µM", "setting": "human CB2 receptor", "value": 2, "unit": "%"}, {"measurement": "EC50", "setting": "ABCA1 protein", "value": 310, "unit": "nM"}]}
{"smiles": "COc1cc(CNC(=O)c2cnc(OCC(F)(F)F)c(-c3ccc(F)c(F)c3)c2)on1", "note": "[Example 99, 5-(3,4-difluorophenyl)-N-((3-methoxyisoxazol-5-yl)methyl)-6-(2,2,2-trifluoroethoxy)nicotinamide]", "values": [{"measurement": "inhibition at 10 µM", "setting": "human CB1 receptor", "value": 20, "unit": "%"}, {"measurement": "inhibition at 10 µM", "setting": "human CB2 receptor", "value": 9, "unit": "%"}, {"measurement": "EC50", "setting": "ABCA1 protein", "value": 1250, "unit": "nM"}]}
{"smiles": "O=C(NCc1nc(C(F)(F)F)no1)c1cnc(OCC(F)(F)F)c(-c2ccc3nonc3c2)c1", "note": "[Example 100, 5-Benzo[1,2,5]oxadiazol-5-yl-6-(2,2,2-trifluoro-ethoxy)-N-(3-trifluoromethyl-[1,2,4]oxadiazol-5-yl-methyl)-nicotinamide]", "values": [{"measurement": "inhibition at 10 µM", "setting": "human CB1 receptor", "value": 15, "unit": "%"}, {"measurement": "inhibition at 10 µM", "setting": "human CB2 receptor", "value": 8, "unit": "%"}, {"measurement": "EC50", "setting": "ABCA1 protein", "value": 580, "unit": "nM"}]}
